Values of other authors, collected in paper PMC12390126, “Human Skin Permeation of Ethoxy- and Propoxypropanol Commonly Found in Water-Based Products” (Toxics, 2025).
Where two headings read alike, the source gives them in different places.

What was measured:
[1] = frozen full thickness skin, 32 °C, 4 h, cited from earlier work; for J ± SD / Kp ± SD: 56.1-61.7 mg/cm^2
[2] = dermatomed 0.8 mm, 32 °C, 24 h, cited from earlier work; for J ± SD / Kp ± SD: 109.6 (PGME) or 100.0 (PGBE) mg/cm^2
[3] = design: method as in PMID 15251185; conditions: frozen full thickness skin (1 mm), 32 °C, 57.8 mg/cm^2, 8 h; cited from earlier work

For `COCC(C)OC(C)=O` (stereo not drawn) [PGMEac, propylene glycol methyl ether acetate], the “J ± SD” value [1] is given as 59 ± 44 µg/cm^2/h, the “Kp ± SD” value [1] is given as 0.06 ± 0.006 10^−3 cm/h and the “Tlag ± SD” value [1] is given as 0.5 ± 0.05 h.
For `CCCCOCC(C)O` (stereo not drawn) [PGBE, propylene glycol butyl ether], the “J ± SD” value ([2]; fresh skin) is given as 7.93 ± 1.57 µg/cm^2/h, the “Kp ± SD” value ([2]; fresh skin) is given as 0.009 ± 0.002 10^−3 cm/h and the “Tlag ± SD” value ([2]; fresh skin) is given as 0.89 ± 0.13 h. The “J ± SD” value ([2]; frozen skin) was 44.1 ± 16.2 µg/cm^2/h, the “Kp ± SD” value ([2]; frozen skin) was 0.05 ± 0.02 10^−3 cm/h and the “Tlag ± SD” value ([2]; frozen skin) was 0.86 ± 0.23 h. For the same compound, the “J ± SD” value [1] was 17 ± 5 µg/cm^2/h, the “Kp ± SD” value [1] was 0.02 ± 0.005 10^−3 cm/h and the “Tlag ± SD” value [1] was 0.62 ± 0.03 h.
For dipropylene glycol methyl ether [DPGME], the “J ± SD” value [3] is listed as 106.3 ± 37.6 µg/cm^2/h, the “Kp ± SD” value [3] is listed as 0.11 ± 0.04 10^−3 cm/h and the “Tlag ± SD” value [3] is listed as 1.51 ± 0.48 h.
